Measured values from patent publication US20230321083A1, “Inhibitors of GPR174 and Uses Thereof” (Omeros Corporation, priority 2016, published 2023).

How the values were obtained:
Type in all cases: cell-based
ADBR2 [1] = target: T1, ADBR2 (Homo sapiens, UniProt P07550); test: GloSensor assay, ADBR2 control
T1 construct: host or cells: HEK293 or CHO cell lines (ATCC)
Experimental: (§1) In order to confirm that GPR174 interacting compound #4 is an antagonist of GPR174-mediated Gs signaling, a GloSensor assay was carried out with increasing concentrations of compound #4 in the presence or absence of a fixed concentration (1 μM) of the GPR174 agonist LysoPS as follows.
(§2) The GloSensor Assay was performed by transiently transfecting the GPR174 construct, pCMV6-XL4-GPR174 or ADBR2, pGlo22 (300 ng) (Promega) with lipofectamine 2000 (60 μg) (Invitrogen, CA) according to the manufacturer's directions. The DNA/lipofectamine 2000 mix (3000 μL) was incubated at room temperature for 30 minutes and then added into a 10 cm culture dish (Corning, NY) containing 70-90% confluent cultured cells, typically HEK293 or CHO cell lines (ATCC, VA), in 15 mL of media. […] The cells were then incubated at room temperature for 2 hours and the cell plates were pre-read with a SpectraMax L (Molecular Devices, CA). After the pre-read, increasing concentrations of each compound in DMSO (1.0 μl) was added to the cells. The cell plates containing the compound were read immediately after the compound was added and at various times up to 30 minutes after the addition of the compound with a SpectraMax L (Molecular Devices, CA). Data were analyzed with either Excel (Microsoft, WA) or Prism 4.03 (GraphPad, CA).

GPR174 [2] = target: T2, GPR174 (Homo sapiens, UniProt Q9BXC1); test: CRE-Luc reporter Gs signaling assay, cells transfected with GPR174; parameters: host or cells: HEK293 or CHO cell lines (ATCC); details: for effect on Gs pathway in the presence of GPR174: CRE-Luc reporter
Experimental: (§3) Compounds were tested in the reporter system with increasing concentrations of GPR174-interacting compounds. GPR174 construct pCMV6-XL4-GPR174 or ADBR2, reporter of interest, pCRE-Luc or GL4.29 (3000 ng), and TK-renilla as an internal control (10 ng) with lipofectamine 2000 (60 ug) (Invitrogen, CA) according to the manufacturer's directions.
(§4) The DNA/lipofectamine 2000 mix (3000 μL) was incubated at room temperature for 30 minutes and then added into a 10 cm culture dish (Corning, NY) containing 70-90% confluent cultured cells, typically HEK293 or CHO cell lines (ATCC, VA), in 15 mL of media. The cells were further incubated for 4-6 hours at 37° C. and then media were removed and cells were detached with 2 mL trypsin (Life Technologies, CA). Media (26 mL) were added to the detached cells and 120 μL of transfected cells were transferred to each well on a 96-well plate. Increasing concentration of each compound in DMSO (1.2 μl) was added to the cells after plating into the 96-well plate. The cells were further incubated at 37° C. for various times. The media were removed and the cells lysed. Luciferase and renilla activities were measured with the Dual-luciferase assay system (Promega, WI) according to the manufacturer's directions. Typically, lysis buffer (25 μL) was added to the cells and incubated at room temperature for 20-30 minutes to allow for the cells to lyse. The lysate (10 μL) was measured for luciferase and renilla activity with LARII and Stop&Glo reagent (50 μL each) with a SpectraMax L (Molecular Devices, CA). Data were analyzed with either Excel (Microsoft, WA) or Prism 4.03 (GraphPad, CA).
(§5) ADBR2 is a GPCR, like GPR174, that activates the Gs signaling pathway.
Target sequence in this assay (Q9BXC1 whole entry): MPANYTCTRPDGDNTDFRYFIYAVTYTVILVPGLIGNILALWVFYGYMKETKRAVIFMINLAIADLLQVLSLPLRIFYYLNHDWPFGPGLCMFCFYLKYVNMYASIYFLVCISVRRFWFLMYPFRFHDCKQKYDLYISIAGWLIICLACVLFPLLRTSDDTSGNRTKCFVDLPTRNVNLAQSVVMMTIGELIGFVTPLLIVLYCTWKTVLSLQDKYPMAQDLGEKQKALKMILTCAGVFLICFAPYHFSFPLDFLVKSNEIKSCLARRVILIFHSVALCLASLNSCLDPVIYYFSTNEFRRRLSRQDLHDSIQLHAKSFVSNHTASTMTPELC

GPR174 [3] = target: T2, GPR174; test: Cellular Redistribution Assay (CRA) against GPR174; parameters: fused on or other part: No tag or reporter is given; details: FIG. 5A
Text: One method for identifying compounds capable of modulating a receptor is using a cellular redistribution assay (“CRA”). Exemplary CRA methods are found in U.S. Pat. No. 7,309,576 issued to O'Dowd et al. and in O'Dowd et al., J. Biomol. Screen. 12:175-85, 2007. […] Incorporation of the NLS alters the cellular localization of the GPCR, such that the majority of the NLS-modified receptor is present in the cell interior. An NLS-modified GPCR, when interacting with a functionally active compound, is mostly localized on the cell surface. Thus, it becomes possible to identify receptor modulators without knowledge of the endogenous ligand or a surrogate ligand.
The inventors have identified a number of compounds that inhibit GPR174 using a CRA assay similar to that described in U.S. Pat. No. 7,309,576 and in O'Dowd et al., J. Biomol. Screen. 12:175-85, 2007. These compounds are described in detail below.
(§6) The inventors used a CRA similar to that described in U.S. Pat. No. 7,309,576 and O'Dowd et al., J. Biomol. Screen. 12:175-85, 2007 to identify compounds that are capable of interacting with GPR174 using a library of approximately 370,000 chemical entities. Briefly described, the CRA assay described in U.S. Pat. No. 7,309,576 involves artificially inserting a NLS into the dopamine D1 receptor (DRD1), which allows the receptor to traffic from the cell membrane to the cell interior, and that the binding of antagonists to the receptor retained the receptor at the cell surface, while removal of the ligand allowed the receptor to continue to internalize from the cell surface. Both antagonists and agonists that selectively bound the receptor retained the receptor on the plasma membrane. GPR174 constructs were generated for use in a CRA-based compound screening assay. From this screen, the inventors initially identified compounds of formula I-VI, as described herein and included in TABLE 1.
Target sequence in this assay (Q9BXC1 1-290 limits assumed): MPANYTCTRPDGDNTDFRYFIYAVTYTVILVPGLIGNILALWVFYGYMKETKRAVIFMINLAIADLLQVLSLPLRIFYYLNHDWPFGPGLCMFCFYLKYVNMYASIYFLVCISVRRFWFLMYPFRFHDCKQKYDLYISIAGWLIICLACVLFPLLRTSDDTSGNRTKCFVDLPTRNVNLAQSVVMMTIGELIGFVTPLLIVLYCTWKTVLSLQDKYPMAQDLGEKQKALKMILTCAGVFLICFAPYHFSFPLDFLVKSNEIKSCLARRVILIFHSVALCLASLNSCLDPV

GPR174 [4] = target: T2, GPR174; test: GloSensor assay, GPR174, with or without LysoPS; parameters: host or cells: HEK293 or CHO cell lines (ATCC)
Experimental: as §1, §2
Target sequence in this assay (Q9BXC1 whole entry, species assumed): as the sequence (Q9BXC1 whole entry) above

CHRM1 = test: Cellular Redistribution Assay (CRA) against CHRM1; details: FIG. 5B
Text: as §6
The inventors also sought to validate that the compounds identified using the CRA are modulatory compounds. To this end, the above-described CRA was used to screen a library for compounds that interact with three control non-orphan receptors, and the results of this screen were compared to the results of screening the same library for compound that were identified using a Fluorometric Imaging Plate Reader (FLIPR) assay, a conventional technique commonly used to identify compounds interacting with non-orphan GPCRs signaling through Ca+. Three non-orphan GPCRs—Muscarinic acetylcholine receptor M1 (CHRM1), Adrenergic receptor alpha 1a (ADRA1a), and Neuropeptide S receptor (NPSR)—were screened against a 10,000-compound GPCR-focused library. Thirty interacting compound “hits” were identified using the CRA, and eighty-one hits were identified using the FLIPR for the CHRM1 receptor; 9 CRA hits and 29 FLIPR hits for the NPS receptor were identified; and 110 CRA hits and 110 FLIPR hits for ADRA1a.
In addition, the CRA can also provide the relative potencies of compounds against the target receptor.

ADBR2 [5] = target: T1, ADBR2; test: CRE-Luc reporter Gs signaling assay, control receptor ADBR2
Experimental: as §3, §4, §5

Row | Compound | modulation of Gs signaling in the presence of ADBR (GloSensor) (ADBR2 [1]) | Human GPR174 CRE Activity: nature of compound (GPR174 [2]) | effect on Gs pathway in the presence of GPR174 (GPR174 [2]) | nature of compound in GPR174 signaling assay (GPR174 [2]; human GPR174 with pCRE-Luc) | dose-response in CRA against GPR174 (GPR174 [3]) | modulation of Gs pathway in the presence of GPR174 (GloSensor) (GPR174 [4]; compound alone) | competition with GPR174 agonist LysoPS (GloSensor) (GPR174 [4]; fixed 1 μM LysoPS) | activity in CRA against CHRM1 (CHRM1) | effect on Gs pathway in the presence of ADBR2 (ADBR2 [5])
1 | lysophosphatidylserine [LysoPS, reference compound] | neither compound #4 nor LysoPS modulate Gs signaling |  |  |  |  |  |  |  | 
2 | CCCC(=O)c1ccc(N2CCN(S(=O)(=O)c3ccc(C)cc3)CC2)c(F)c1 [Compound 4] | neither compound #4 nor LysoPS modulate Gs signaling | Antagonist | did not modulate the Gs pathway | GPR174 antagonist | show a dose-response curve against GPR174 | does not modulate the Gs pathway | does compete with the GPR174 agonist LysoPS | do not show any activity against CHRM1 | did not modulate the Gs pathway
3 | CC(=O)N1CCN(c2cc(N3CCCCC3)c(F)cc2[N+](=O)[O-])CC1 [Compound 2] |  |  | inhibited the Gs pathway |  | show a dose-response curve against GPR174 |  |  | do not show any activity against CHRM1 | did not inhibit the Gs pathway
